# According to patent publication US9637488B2, “Heterocyclic compounds as inhibitors of class I PI3KS” (priority 2015, dated 2017):
# Assays:
# Format in all cases: biochemical
# PI3Kγ (p110γ) = PI3Kγ (p110γ) (Homo sapiens (Human), UniProt P48736); test: cell-free PI3K HTRF assay, PI3Kγ; details: ratio of IC50 against PI3Kγ related to PI3Kδ; 10-dose, 3-fold serial dilution starting at 10 μM
# Experimental: (§1) Exemplary compounds of the invention were tested for inhibitory activity and potency against class I PI3Ks (p110α/p85α, p110β/p85α, p110δ/p85α and p110γ) using a cell-free based PI3K HTRF assay. This assay was used to detect the formation of the product 3,4,5-inositol triphosphate molecule (PIP3) by displacement of biotin-PIP3 from an energy transfer complex consisting of Europium labeled anti-GST monoclonal antibody, a GST-tagged pleckstrin homology (PH) domain, biotinylated PIP3 and Streptavidin-Allophycocyanin (APC). Excitation of Europium in the complex results in an energy transfer to the APC and a fluorescent emission at 665 nm. The PIP3 product formed by human PI 3-Kinase activity displaces biotin-PIP3 from the complex resulting in a loss of energy transfer and thus a decrease in signal.
# (§2) Human class I PI3K isoforms were co-expressed in a Baculovirus infected cell expression system. The PI3K isoforms were assayed in the presence of HEPES (50 mM, pH 7.0), NaN3 (0.02%), BSA (0.01%), orthovanadate (0.1 mM), and DMSO (1%). The exemplary compounds dissolved in DMSO were delivered into the kinase reaction mixture by Acoustic technology (Echo550; nanolitter range), and were pre-incubated for 10 min at room temperature before adding ATP (10 μM) to initiate the reaction. After 30 min at 30° C., the reactions were quenched with a stop solution, incubated overnight with a detection mixture before measuring HTRF (Ex: 320 nm; Em: 615/665 nm). The emission ratio is converted into μM PIP3 production based on PIP3 standard curves, and the nonlinear regression to obtain the standard curve and IC50 values are performed using Graphpad Prism software.
# (§3) The assays were performed at Reaction Biology Corporation, One Great Valley Parkway, Suite 2, Malvern, Pa. 19355, USA.
# (§4) Exemplary compounds of the invention selected were further tested their inhibitory activity or potency against PI3Kα, PI3Kβ, and PI3Kγ in 10-dose IC50 mode with 3-fold serial dilution starting at 10 μM. […] Table 5 below illustrates the selectivity of the exemplary compounds using the ratios of the IC50 values of the compounds against PI3Kα, PI3Kβ, and PI3Kγ related to PI3Kδ. […] Such unexpected selectivity against PI3Kδ and/or PI3Kγ is attributed to the unusual overall shape of the molecules of formula (I) and (II), and the optimal selection of R1, R2, R3, R4, X, and Y defined in formula (I) and (II) in order to bind favorably in the ATP-binding pocket of PI3Kδ and/or PI3Kγ versus other class I isozymes.
# PI3Kβ (p110β/p85α) = PI3Kβ (p110β/p85α) (Homo sapiens (Human), UniProt P42338); test: cell-free PI3K HTRF assay, PI3Kβ; details: ratio of IC50 against PI3Kβ related to PI3Kδ; 10-dose, 3-fold serial dilution starting at 10 μM
# Experimental: as §1, §2, §3, §4
# PI3Kδ (p110δ/p85α) = PI3Kδ (p110δ/p85α) (Homo sapiens (Human), UniProt O00329); test: cell-free PI3K HTRF assay, PI3Kδ; details: 10-dose IC50 mode, 3-fold serial dilution starting at 1 μM; ATP 10 μM; read-out: IC50 value for the inhibition of PI3Kδ
# PI3Kα (p110α/p85α) = PI3Kα (p110α/p85α) (Homo sapiens (Human), UniProt P42336); test: cell-free PI3K HTRF assay, PI3Kα; details: ratio of IC50 against PI3Kα related to PI3Kδ; 10-dose, 3-fold serial dilution starting at 10 μM
# Experimental: as §1, §2, §3, §4
# Sequence of PI3Kβ (p110β/p85α) (P42338 whole entry): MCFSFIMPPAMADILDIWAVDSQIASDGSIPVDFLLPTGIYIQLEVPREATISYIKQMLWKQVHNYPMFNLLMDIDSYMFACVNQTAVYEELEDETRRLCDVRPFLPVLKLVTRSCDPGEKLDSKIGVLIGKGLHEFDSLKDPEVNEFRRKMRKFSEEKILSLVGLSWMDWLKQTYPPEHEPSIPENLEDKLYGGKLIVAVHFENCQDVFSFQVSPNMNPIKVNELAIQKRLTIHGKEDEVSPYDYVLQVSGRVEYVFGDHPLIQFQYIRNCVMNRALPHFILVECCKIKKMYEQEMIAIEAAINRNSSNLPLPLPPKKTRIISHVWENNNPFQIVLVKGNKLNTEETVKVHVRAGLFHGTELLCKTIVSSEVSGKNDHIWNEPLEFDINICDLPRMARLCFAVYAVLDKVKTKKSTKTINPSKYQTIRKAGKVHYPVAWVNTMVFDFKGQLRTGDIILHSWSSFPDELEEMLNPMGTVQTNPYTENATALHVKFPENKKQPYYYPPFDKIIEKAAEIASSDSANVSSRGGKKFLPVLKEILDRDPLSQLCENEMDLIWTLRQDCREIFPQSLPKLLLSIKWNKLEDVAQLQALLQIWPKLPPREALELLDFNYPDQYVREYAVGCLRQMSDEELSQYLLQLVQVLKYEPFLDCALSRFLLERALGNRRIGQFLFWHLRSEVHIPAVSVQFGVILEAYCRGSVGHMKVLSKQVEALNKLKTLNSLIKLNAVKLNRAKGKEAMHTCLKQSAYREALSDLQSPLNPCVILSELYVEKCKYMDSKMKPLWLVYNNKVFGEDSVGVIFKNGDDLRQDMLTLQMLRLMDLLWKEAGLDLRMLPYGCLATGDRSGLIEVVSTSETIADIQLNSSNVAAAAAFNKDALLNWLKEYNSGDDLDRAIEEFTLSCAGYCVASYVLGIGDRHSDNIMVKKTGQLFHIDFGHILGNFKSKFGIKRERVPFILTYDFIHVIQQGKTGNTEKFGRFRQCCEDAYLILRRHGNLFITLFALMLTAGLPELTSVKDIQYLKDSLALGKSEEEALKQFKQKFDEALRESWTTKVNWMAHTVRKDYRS
# Sequence of PI3Kβ (p110β/p85α) (P27986 whole entry partner): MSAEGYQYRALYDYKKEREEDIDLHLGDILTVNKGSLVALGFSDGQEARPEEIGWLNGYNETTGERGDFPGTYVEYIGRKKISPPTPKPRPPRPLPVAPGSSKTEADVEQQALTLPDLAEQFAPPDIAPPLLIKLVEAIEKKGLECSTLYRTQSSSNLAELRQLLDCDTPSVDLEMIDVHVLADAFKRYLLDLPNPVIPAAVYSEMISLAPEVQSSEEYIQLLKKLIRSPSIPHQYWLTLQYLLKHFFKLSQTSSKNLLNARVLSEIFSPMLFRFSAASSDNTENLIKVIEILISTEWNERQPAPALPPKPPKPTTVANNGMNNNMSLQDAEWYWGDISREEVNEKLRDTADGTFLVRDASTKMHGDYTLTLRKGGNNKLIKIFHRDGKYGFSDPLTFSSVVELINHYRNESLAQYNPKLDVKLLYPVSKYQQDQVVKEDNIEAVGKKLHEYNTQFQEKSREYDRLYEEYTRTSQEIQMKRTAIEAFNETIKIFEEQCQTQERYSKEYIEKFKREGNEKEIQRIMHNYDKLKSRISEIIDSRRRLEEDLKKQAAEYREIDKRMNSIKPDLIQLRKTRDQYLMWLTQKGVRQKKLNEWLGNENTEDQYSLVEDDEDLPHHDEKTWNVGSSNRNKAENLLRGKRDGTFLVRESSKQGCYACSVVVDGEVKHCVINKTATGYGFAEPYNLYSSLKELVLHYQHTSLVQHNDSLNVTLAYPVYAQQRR
# Sequence of PI3Kδ (p110δ/p85α) (O00329 whole entry): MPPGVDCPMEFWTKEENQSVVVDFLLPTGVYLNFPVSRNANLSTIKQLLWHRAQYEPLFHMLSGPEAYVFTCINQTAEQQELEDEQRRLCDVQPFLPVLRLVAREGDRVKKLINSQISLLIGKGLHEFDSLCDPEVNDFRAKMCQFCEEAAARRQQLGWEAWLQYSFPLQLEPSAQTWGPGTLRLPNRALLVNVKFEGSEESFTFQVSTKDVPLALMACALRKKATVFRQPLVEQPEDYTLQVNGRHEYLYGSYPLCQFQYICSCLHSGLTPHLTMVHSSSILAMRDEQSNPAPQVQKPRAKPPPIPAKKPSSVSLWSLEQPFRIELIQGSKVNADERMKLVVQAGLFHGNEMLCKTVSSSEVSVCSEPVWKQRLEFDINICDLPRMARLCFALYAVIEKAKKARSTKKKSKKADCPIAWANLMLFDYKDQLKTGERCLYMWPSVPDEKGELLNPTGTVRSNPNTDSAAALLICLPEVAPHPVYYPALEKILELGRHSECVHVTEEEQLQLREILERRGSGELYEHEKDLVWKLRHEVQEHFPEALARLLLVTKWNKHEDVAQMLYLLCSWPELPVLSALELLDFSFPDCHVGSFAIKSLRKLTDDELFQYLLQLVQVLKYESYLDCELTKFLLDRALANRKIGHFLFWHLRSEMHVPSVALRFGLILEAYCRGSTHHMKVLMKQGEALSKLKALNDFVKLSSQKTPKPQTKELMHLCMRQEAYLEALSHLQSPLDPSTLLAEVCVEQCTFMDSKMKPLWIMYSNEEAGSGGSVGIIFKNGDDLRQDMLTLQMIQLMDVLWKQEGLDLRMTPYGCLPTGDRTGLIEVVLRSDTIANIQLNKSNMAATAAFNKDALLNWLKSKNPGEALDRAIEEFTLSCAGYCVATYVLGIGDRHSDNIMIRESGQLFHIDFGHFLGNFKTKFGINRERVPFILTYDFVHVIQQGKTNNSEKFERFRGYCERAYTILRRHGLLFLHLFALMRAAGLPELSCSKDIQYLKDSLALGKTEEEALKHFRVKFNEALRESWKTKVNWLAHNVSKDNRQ
# Sequence of PI3Kδ (p110δ/p85α) (P27986 whole entry partner): as the sequence (P27986 whole entry partner) above
# Sequence of PI3Kγ (p110γ) (P48736 whole entry): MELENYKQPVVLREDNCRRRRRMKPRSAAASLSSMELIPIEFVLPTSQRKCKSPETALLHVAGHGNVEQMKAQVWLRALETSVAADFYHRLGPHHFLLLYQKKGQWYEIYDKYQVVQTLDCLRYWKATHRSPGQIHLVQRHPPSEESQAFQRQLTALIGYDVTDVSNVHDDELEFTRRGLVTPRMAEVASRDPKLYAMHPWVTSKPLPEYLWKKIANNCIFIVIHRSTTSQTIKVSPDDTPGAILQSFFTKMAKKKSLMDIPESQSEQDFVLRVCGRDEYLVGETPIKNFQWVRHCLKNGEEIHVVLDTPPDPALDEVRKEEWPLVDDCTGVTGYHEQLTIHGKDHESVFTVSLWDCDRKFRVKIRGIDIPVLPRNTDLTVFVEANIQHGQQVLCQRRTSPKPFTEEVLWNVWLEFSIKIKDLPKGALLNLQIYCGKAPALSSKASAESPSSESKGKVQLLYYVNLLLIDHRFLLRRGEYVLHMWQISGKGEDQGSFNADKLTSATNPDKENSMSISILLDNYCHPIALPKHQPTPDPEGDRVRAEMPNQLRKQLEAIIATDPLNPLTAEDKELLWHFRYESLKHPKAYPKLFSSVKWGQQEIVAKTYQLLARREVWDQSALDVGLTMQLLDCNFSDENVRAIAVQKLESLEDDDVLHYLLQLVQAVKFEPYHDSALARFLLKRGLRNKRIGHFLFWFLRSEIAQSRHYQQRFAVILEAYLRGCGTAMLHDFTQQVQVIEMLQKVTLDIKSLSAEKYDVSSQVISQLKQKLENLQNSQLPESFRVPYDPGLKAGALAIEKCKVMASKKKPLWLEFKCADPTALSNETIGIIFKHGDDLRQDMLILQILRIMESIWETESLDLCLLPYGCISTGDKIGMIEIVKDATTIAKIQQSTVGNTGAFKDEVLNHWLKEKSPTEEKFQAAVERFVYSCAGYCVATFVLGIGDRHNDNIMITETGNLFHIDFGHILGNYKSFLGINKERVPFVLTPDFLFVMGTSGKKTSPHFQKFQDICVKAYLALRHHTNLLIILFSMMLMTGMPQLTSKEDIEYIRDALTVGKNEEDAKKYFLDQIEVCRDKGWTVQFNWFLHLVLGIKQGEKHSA
# Sequence of PI3Kα (p110α/p85α) (P42336 whole entry): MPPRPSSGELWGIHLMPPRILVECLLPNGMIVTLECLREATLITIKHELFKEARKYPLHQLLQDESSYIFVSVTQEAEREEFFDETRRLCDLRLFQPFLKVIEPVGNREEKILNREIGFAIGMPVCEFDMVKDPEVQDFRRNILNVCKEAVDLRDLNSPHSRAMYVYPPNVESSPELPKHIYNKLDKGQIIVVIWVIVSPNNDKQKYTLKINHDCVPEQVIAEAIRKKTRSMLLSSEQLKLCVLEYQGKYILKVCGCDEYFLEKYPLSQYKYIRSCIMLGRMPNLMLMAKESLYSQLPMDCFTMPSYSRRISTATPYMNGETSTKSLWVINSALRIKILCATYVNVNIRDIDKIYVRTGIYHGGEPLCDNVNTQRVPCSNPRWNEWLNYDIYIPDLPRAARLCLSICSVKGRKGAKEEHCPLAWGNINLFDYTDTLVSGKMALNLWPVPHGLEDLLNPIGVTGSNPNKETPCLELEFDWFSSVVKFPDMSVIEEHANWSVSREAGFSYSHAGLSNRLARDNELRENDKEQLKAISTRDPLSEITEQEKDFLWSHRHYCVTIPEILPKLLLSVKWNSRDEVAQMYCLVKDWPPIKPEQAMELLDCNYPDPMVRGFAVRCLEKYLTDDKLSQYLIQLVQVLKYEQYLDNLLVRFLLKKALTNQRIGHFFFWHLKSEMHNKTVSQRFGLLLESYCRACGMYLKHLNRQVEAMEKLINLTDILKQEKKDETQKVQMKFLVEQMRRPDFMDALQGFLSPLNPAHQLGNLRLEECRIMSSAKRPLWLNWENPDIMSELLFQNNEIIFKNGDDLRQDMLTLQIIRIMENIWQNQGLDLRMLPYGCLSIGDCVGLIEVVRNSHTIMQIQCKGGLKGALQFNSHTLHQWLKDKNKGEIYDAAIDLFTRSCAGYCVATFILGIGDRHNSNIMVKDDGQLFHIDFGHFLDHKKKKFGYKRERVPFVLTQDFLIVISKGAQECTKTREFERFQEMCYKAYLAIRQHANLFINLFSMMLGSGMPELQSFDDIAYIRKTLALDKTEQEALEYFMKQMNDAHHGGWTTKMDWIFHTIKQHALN
# Sequence of PI3Kα (p110α/p85α) (P27986 whole entry partner): as the sequence (P27986 whole entry partner) above
Ratio (γ/δ) (PI3Kγ (p110γ)),Ratio (β/δ) (PI3Kβ (p110β/p85α)),IC50 (PI3Kδ (p110δ/p85α)) [nM],Ratio (α/δ) (PI3Kα (p110α/p85α)),SMILES
~10,>106,< 0.05,>545,N#Cc1c(N)nc(N)nc1N1CCC[C@H]1c1cc2cccc(Cl)c2nc1-c1ccccc1 [Compound 68]
>31,>111,< 0.05,>4154,N#Cc1c(N)ncnc1N1CCC[C@H]1c1cc2cccc(Cl)c2nc1N1CCOCC1 [Compound 69]
